Here are results for 28 molecules from patent US10995091B2 (Proximagen, LLC, priority 2010, dated 2021).

For this assay, the target named is T1, Human CXCR4 transfected HEK293 cells (Homo sapiens, UniProt P61073).
T1 construct: expressed in transfected cells; host or cells: HEK293
The assay can be described thus: CXCR4 functional calcium assay (calcium flux FLIPR, antagonism of SDF1 response). Format: cell-based. As to conditions: CXCR4 functional activity, antagonism of SDF1 (EC50 concentration), read-out: CXCR4 fKi. The protocol: The functional activity of test compounds was routinely tested by measuring the ability of compounds to antagonize CXCR4 activity in a dose dependent manner, using a calcium flux Fluorescent Imaging Plate Reader FLIPR assay.
Human CXCR4 transfected HEK293 cells were cultured in Dulbecco's modified Eagles medium containing 4.5 g/L glucose, L-glutamine, pyruvate, 50 µg/mL Geneticin and 250 µg/mL hygromycin B and maintained at 37° C. in a humidified, 5% CO2 controlled atmosphere. Subcultivations were performed every 2-3 d.
At confluence the cells were lifted using Ca^2+ and Mg^2+ free PBS/0.02% (w/v) EDTA, spun at 1000 rpm for 3 min and resuspended at 2.5×10^5 cells/mL. Cells were plated into a 384 well, poly-d-lysine coated, black with clear bottomed plate (Becton Dickinson) at 7500 cells/well. The plates were incubated overnight at 37° C. under 5% CO2. On the day of the experiment the cells were washed with incubation Buffer (HBSS containing 2.5 mM probenecid, 0.1% w/v BSA and 10 mM HEPES, pH 7.4 at 37° C.). After washing, the cells were loaded with Fluo-4 AM dye (Molecular probes) at 2 µM containing 0.48 µg/mL pluronic acid for 60 min at 37° C. under 5% CO2. After thorough washing with incubation buffer the cells were preincubated for 10 min at 37° C. before use.
A combined agonist/antagonist protocol was used to measure changes in intracellular calcium concentration. Compound (antagonist) was added to the cell plate using a Fluorometric Imaging Plate Reader (FLIPR) (Molecular Devices, Sunnyvale, Calif., USA). Basal fluorescence was recorded every second for 10 seconds prior to compound addition (10 μl) and fluorescence recorded every second for 1 min then every 6 seconds for a further 1 min. SDF1[…] (EC50 concentration) was then added using the FLIPR and fluorescence recorded as described above. Curve-fitting and parameter estimation were carried out using GraphPad Prism 4.0 (GraphPad Software Inc., San Diego, Calif.).
(In general: A change in cytosolic calcium serves as a functional read-out for many receptors and channels.)

Where a name gives a salt, the structure may show the parent alone.

T1 sequence (P61073 whole entry): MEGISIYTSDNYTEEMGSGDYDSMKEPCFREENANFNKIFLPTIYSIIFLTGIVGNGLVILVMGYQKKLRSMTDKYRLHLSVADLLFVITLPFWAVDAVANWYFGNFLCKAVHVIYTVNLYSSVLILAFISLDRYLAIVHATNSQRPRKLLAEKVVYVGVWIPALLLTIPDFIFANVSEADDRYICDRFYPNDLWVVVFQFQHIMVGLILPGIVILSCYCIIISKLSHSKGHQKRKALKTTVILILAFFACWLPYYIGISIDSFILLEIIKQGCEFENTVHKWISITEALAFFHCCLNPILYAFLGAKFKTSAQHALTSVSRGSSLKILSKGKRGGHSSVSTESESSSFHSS

On to `O=C(NCCCn1ccnc1)c1cccc(N2CCCN(C3CCN(Cc4ccccc4Cl)CC3)CC2)n1` [Example 139, 6-(4-{1-[(2-Chlorophenyl)methyl]piperidin-4-yl}-1,4-diazepan-1-yl)-N-[3-(1H-imidazol-1-yl)propyl]pyridine-2-carboxamide], for which the Ki was in the range of 100 to 500 nM.

With `O=C(NCC1CC1)c1cccc(N2CCCN(C3CCN(Cc4cccc(Cl)c4)CC3)CC2)n1` [Example 134, 6-(4-{1-[(3-Chlorophenyl)methyl]piperidin-4-yl}-1,4-diazepan-1-yl)-N-(cyclopropylmethyl)pyridine-2-carboxamide], the Ki lay in the range of 100 to 500 nM.

In the case of `Clc1ccccc1CN1CCC(N2CCCN(c3ccccn3)CC2)CC1` [Example 261, 1-{1-[(2-Chlorophenyl)methyl]piperidin-4-yl}-4-(pyridin-2-yl)-1,4-diazepane], the Ki lay in the range of 100 to 500 nM.

With `Cc1nc(-c2cccc(NCCNC3CCCN(C4CCCC4)C3)n2)[nH]c1C1CC1` (stereo not shown) [Example 231, N-{2-[(1-Cyclopentylpiperidin-3-yl)amino]ethyl}-6-(5-cyclopropyl-4-methyl-1H-imidazol-2-yl)pyridin-2-amine], the Ki lay in the range of 100 to 500 nM.

With `CCc1nc(-c2cccc(N3CCCN(C4CCN(C(C)C)CC4)CC3)n2)no1` [Example 155, 1-[6-(5-Ethyl-1,2,4-oxadiazol-3-yl)pyridine-2-yl]-4-[1-(propan-2-yl)piperidin-4-yl]-1,4-diazepane trihydrochloride], the Ki lay within 100 to 500 nM.

On to `CCCCNC(=O)c1cccc(N2CCCN(C3CCN(Cc4ccccc4Cl)CC3)CC2)n1` [Example 138, N-Butyl-6-(4-{1-[(2-chlorophenyl)methyl]piperidin-4-yl}-1,4-diazepan-1-yl)pyridine-2-carboxamide], for which the Ki fell in the range of 500 to 1000 nM.

Regarding `C[C@H](N1CCC(N2CCCN(c3cccc(C(=O)NCC4CC4)n3)CC2)CC1)C(F)(F)F` [Example 69, N-(Cyclopropylmethyl)-6-(4-{1-[(2S)-1,1,1-trifluoropropan-2-yl]piperidin-4-yl}-1,4-diazepan-1-yl)pyridine-2-carboxamide], the Ki is 100 to 500 nM.

Regarding `Cc1ccccc1CN1CCCC(N2CCN(c3cccc(C(=O)Nc4ccncc4)n3)CC2)CC1` (stereo not shown) [Example 240, 6-(4-{1-[(2-Methylphenyl)methyl]azepan-4-yl}piperazin-1-yl)-N-(pyridin-4-yl)pyridine-2-carboxamide], the Ki was 20 to 100 nM.

Regarding `O=C(NCC1CC1)c1cccc(N2CCCN(C3CCN(Cc4ccccc4Cl)CC3)CC2)n1` [Example 132, 6-(4-{1-[(2-Chlorophenyl)methyl]piperidin-4-yl}-1,4-diazepan-1-yl)-N-(cyclopropylmethyl)pyridine-2-carboxamide], the Ki lay in the range of 20 to 100 nM.

In the case of `O=C(NC[C@H]1CCCO1)c1cccc(N2CCCN(C3CCN(Cc4ccccc4Cl)CC3)CC2)n1` [Example 51, 6-(4-{1-[(2-Chlorophenyl)methyl]piperidin-4-yl}-1,4-diazepan-1-yl)-N-[(2R)-oxolan-2-ylmethyl]pyridine-2-carboxamide], the Ki is 20 to 100 nM.

Take `[2H]C1([2H])CCN(c2cccc(C(=O)NCC3CC3)n2)CCN1C1CCN(C(C)C)CC1` [Example 192, N-(Cyclopropylmethyl)-6-{5,5-dihydrogenio-4-[1-(propan-2-yl)piperidin-4-yl]-1,4-diazepan-1-yl}pyridine-2-carboxamide]: the Ki lay within 20 to 100 nM.

For `O=C(Nc1ccncc1)c1cccc(N2CC3CCC(C2)N(C2CCN(Cc4ccc(F)cc4Cl)CC2)C3)n1` (stereo not shown) [Example 209, 6-(6-{1-[(2-Chloro-4-fluorophenyl)methyl]piperidin-4-yl}-3,6-diazabicyclo[3.2.2]nonan-3-yl)-N-(pyridin-4-yl)pyridine-2-carboxamide], the Ki lay within 100 to 500 nM.

Take `CC(C)N1CCCC(N(C)CCN(C)c2cccc(C(=O)Nc3ccncc3)n2)CC1` (stereo not shown) [Example 238, 6-[Methyl(2-{methyl[1-(propan-2-yl)azepan-4-yl]amino}ethyl)amino]-N-(pyridin-4-yl)pyridine-2-carboxamide]: the Ki lay within 100 to 500 nM.

Turning to `[2H]C1([2H])CCN(C2CCN([C@@H](C)C(F)(F)F)CC2)CCN1c1cccc(C(=O)Nc2ccncc2)n1` [Example 178, 6-(7,7-Dihydrogenio-4-{1-[(2S)-1,1,1-trifluoropropan-2-yl]piperidin-4-yl}-1,4-diazepan-1-yl)-N-(pyridine-4-yl)pyridine-2-carboxamide], the Ki was in the range of 20 to 100 nM.

On to `CC(C)N1CCC(N2CCCN(c3cccc(-c4ncc(C(F)(F)F)[nH]4)n3)CC2)CC1` [Example 112, 1-[1-(Propan-2-yl)piperidin-4-yl]-4-{6-[4-(trifluoromethyl)-1H-imidazol-2-yl]pyridine-2-yl}-1,4-diazepane], for which the Ki lay within 500 to 1000 nM.

For `[2H]C1([2H])CCN(C2CCN([C@@H](C)CC)CC2)CCN1c1cccc(C(=O)Nc2ccncc2)n1` [Example 177, 6-(4-{1-[(2S)-Butan-2-yl]piperidin-4-yl}-7,7-dihydrogenio-1,4-diazepan-1-yl)-N-(pyridine-4-yl)pyridine-2-carboxamide], the Ki was less than 20 nM.

Take `CC(C)N1CCC(N2CCCN(c3cccc(C(=O)N4CCc5ccccc5C4)n3)CC2)CC1` [Example 22, 2-[(6-{4-[1-(Propan-2-yl)piperidin-4-yl]-1,4-diazepan-1-yl}pyridin-2-yl)carbonyl]-1,2,3,4-tetrahydroisoquinoline]: the Ki lay within 100 to 500 nM.

Turning to `CCCCc1cnc(-c2cccc(N3CCCN(C4CCN(C(C)C)CC4)CC3)n2)o1` [Example 171, 1-[6-(5-Butyl-1,3-oxazol-2-yl)pyridin-2-yl]-4-[1-(propan-2-yl)piperidin-4-yl]-1,4-diazepane], the Ki was 500 to 1000 nM.

`CC(C)N1CCC(N2CCCN(c3cccc(C(=O)NCc4cscn4)n3)CC2)CC1` [Example 42, 6-{4-[1-(Propan-2-yl)piperidin-4-yl]-1,4-diazepan-1-yl}-N-(1,3-thiazol-4-ylmethyl)pyridine-2-carboxamide]: the Ki fell in the range of 20 to 100 nM.

With `CC(C(F)F)N1CCC(N2CCCN(c3cccc(C(=O)NCC4CC4)n3)CC2)CC1` (stereo not shown) [Example 68, N-(Cyclopropylmethyl)-6-{4-[1-(1,1-difluoropropan-2-yl)piperidin-4-yl]-1,4-diazepan-1-yl}pyridine-2-carboxamide], the Ki was in the range of 100 to 500 nM.

Turning to `CC(C)N1CCC(N2CCCN(c3cccc(-c4ncc(C(C)(C)C)[nH]4)n3)CC2)CC1` [Example 113, 1-[6-(4-tert-Butyl-1H-imidazol-2-yl)pyridine-2-yl]-4-[1-(propan-2-yl)piperidin-4-yl]-1,4-diazepane], the Ki was 100 to 500 nM.

Turning to `Cc1ccnc(N2CCCN(C3CCN(Cc4ccccc4Cl)CC3)CC2)c1` [Example 264, 1-{1-[(2-Chlorophenyl)methyl]piperidin-4-yl}-4-(4-methylpyridin-2-yl)-1,4-diazepane], the Ki lay in the range of 100 to 500 nM.

On to `CC(C)N1CCC(N2CCCN(c3cccc(C(=O)Nc4ccncc4)n3)CC2C)CC1` (stereo not shown) [Example 193, 6-{3-Methyl-4-[1-(propan-2-yl)piperidin-4-yl]-1,4-diazepan-1-yl}-N-(pyridin-4-yl)pyridine-2-carboxamide], for which the Ki is less than 20 nM.

As for `CC(C)N1CCC(N2CCCN(c3cccc(C(=O)NCc4ccccn4)n3)CC2)CC1` [Example 33, 6-{4-[1-(Propan-2-yl)piperidin-4-yl]-1,4-diazepan-1-yl}-N-(pyridin-2-ylmethyl)pyridine-2-carboxamide], the Ki fell in the range of 20 to 100 nM.

Take `CCC(CC)N1CCC(N2CCCN(c3cccc(C(=O)NCC4CC4)n3)CC2)CC1` [Example 66, N-(Cyclopropylmethyl)-6-{4-[1-(pentan-3-yl)piperidin-4-yl]-1,4-diazepan-1-yl}pyridine-2-carboxamide]: the Ki lay in the range of 20 to 100 nM.

With `[2H]C1([2H])CCN(c2cccc(C(=O)Nc3ccncc3)n2)CC(C)N1C1CCN([C@@H](C)C(F)(F)F)CC1` (stereo partly drawn) [Example 196, 6-(5,5-Dihydrogenio-3-methyl-4-{1-[(2S)-1,1,1-trifluoropropan-2-yl]piperidin-4-yl}-1,4-diazepan-1-yl)-N-(pyridin-4-yl)pyridine-2-carboxamide], the Ki was in the range of 20 to 100 nM.

As to `[2H]C1([2H])CCN(c2cccc(C(=O)Nc3ccncc3)n2)CCN1C1CCN([C@@H](C)C(F)(F)F)CC1` [Example 190, 6-(5,5-Dihydrogenio-4-{1-[(2S)-1,1,1-trifluoropropan-2-yl]piperidin-4-yl}-1,4-diazepan-1-yl)-N-(pyridin-4-yl)pyridine-2-carboxamide], the Ki was less than 20 nM.

On to `COc1ccc(C(=O)NCC2CC2)nc1N1CCCN(C2CCN(Cc3ccccc3Cl)CC2)CC1` [Example 270, 6-(4-{1-[(2-Chlorophenyl)methyl]piperidin-4-yl}-1,4-diazepan-1-yl)-N-(cyclopropylmethyl)-5-methoxypyridine-2-carboxamide], for which the Ki lay in the range of 100 to 500 nM.
